Data on 3 compounds can be found in US20040254162A1, “Oxazolidinone derivatives as antimicrobials” (priority 2001, published 2004).

For orientation: MIC50 means the lowest concentration that inhibits either 50% of growth or 50% of the strains tested, depending on the study. As usually defined, the MIC90 is an inhibitory concentration at the 90% level, which refers to growth in some studies and to a panel of isolates in others.

≈ marks a conversion by molar mass, not a printed value. Read-outs that look alike come from different tables or passages of the source.

Test [1] deals with MRSA 562. The test is described as follows: MIC, agar incorporation method.
The next test concerns Strep. pne. ATCC 6303. Put plainly: MIC, agar incorporation method. The note with it: agar incorporation.
In a further test the test system is Strep. pyog. ATCC 19615. Put plainly: MIC, agar incorporation method. The note with it: agar incorporation.
For a further test, the system named is VRE 6A (Ent. faecium 6A). Put plainly: MIC, agar incorporation method. The conditions noted are these: agar incorporation.
Another test has as its system S. pneum AB 34. Put plainly: MIC, agar incorporation method. The conditions noted are these: agar incorporation.
A further test concerns S. aureus ATCC 25923. Put plainly: MIC, agar incorporation method. The note with it: agar incorporation.
In the next test the test system is S. aureus. Put plainly: Summary of in vitro activity (MIC). The note with it: S. aureus.
In the next test the test system is MRSA 15187. The test is described as follows: MIC, agar incorporation method. The conditions noted are these: agar incorporation.
The test system of a further test is S. pneumoniae. The test is described as follows: Summary of in vitro activity (MIC). The note with it: S. pneumoniae.
For another test, the system named is MRSA 33. Put plainly: MIC, agar incorporation method. The conditions noted are these: agar incorporation.
Another test relates to Ent. faecalis ATCC 29212. Put plainly: MIC, agar incorporation method. The note with it: agar incorporation.
The next test has as its system G +ve bacteria. Put plainly: Summary of in vitro activity (MIC).
In test [2] the test system is MRSA 562. The test is described as follows: In vivo activity against MRSA 562 (ED50). Also on record: species or system Methicillin Resistant Staphylococcus aureus. The conditions noted are these: PO; MRSA 562 infection.
A further test relates to E. faecalis. The test is described as follows: Summary of in vitro activity (MIC). The conditions noted are these: E. faecalis.
Another test deals with Bacteroides fragilis. The test is described as follows: Agar dilution MIC, anaerobes. The note with it: Bacteroides fragilis, single isolates, anaerobic agar dilution; read-out: MIC Bacteroides fragilis. In kind it is cell-based. For orientation: In agar dilution the substance is mixed into plates at graded concentrations.
A further test relates to Porphyromonas gingivalis. The test is described as follows: Agar dilution MIC, anaerobes. In kind it is cell-based. The note with it: Porphyromonas gingivalis; single isolate, anaerobic agar dilution; read-out: MIC Porphyromonas gingivalis.
In another test the test system is Fusobacterium montiferum. Put plainly: Agar dilution MIC, anaerobes. It counts as cell-based. The note with it: single isolates, anaerobic agar dilution.
The next test deals with Clostridium perfringens. The test is described as follows: microbe, parasite or virus in culture. In kind it is cell-based. The note with it: for MIC: Clostridium perfringens, read-out: MIC Clostridium perfringens, single isolates, anaerobic agar dilution.
Another test deals with Eubacterium leutum. Put plainly: Agar dilution MIC, anaerobes. It counts as cell-based. The conditions noted are these: single isolates, anaerobic agar dilution.
The subject of a further test is P. acnes. Put plainly: Agar dilution MIC, anaerobes. In kind it is cell-based. The conditions noted are these: single isolates, anaerobic agar dilution; for MIC: Cutibacterium acnes, read-out: MIC P. acnes.
For test [3], the system named is Prevotella (Bacteroides) disiens. The test is described as follows: Agar dilution MIC, anaerobes. In kind it is cell-based. The note with it: single isolates, anaerobic agar dilution; for MIC: read-out: MIC Prevotella (Bacteroides) disiens.
Another test has as its system Prevotella intermedia. Put plainly: Agar dilution MIC, anaerobes. The note with it: Prevotella intermedia, single isolates, anaerobic agar dilution; read-out: MIC Prevotella intermedia. It counts as cell-based.
For a further test, the system named is Clostridium difficile. The test is described as follows: Agar dilution MIC, anaerobes. It counts as cell-based. The note with it: single isolates, anaerobic agar dilution; for MIC: Clostridioides difficile, read-out: MIC Clostridium difficile.
Another test has as its system Clostridium camis. Put plainly: Agar dilution MIC, anaerobes. In kind it is cell-based. The note with it: Clostridium; single isolates, anaerobic agar dilution; read-out: MIC Clostridium camis.
For test [4], the system named is Peptostreptococcus tetradius. Put plainly: Agar dilution MIC, anaerobes. In kind it is cell-based. The conditions noted are these: single isolates, anaerobic agar dilution.
The test system of the next test is Fusobacterium necrogenes. The test is described as follows: Agar dilution MIC, anaerobes. In kind it is cell-based. The note with it: Fusobacterium necrogenes; single isolate, anaerobic agar dilution; read-out: MIC Fusobacterium necrogenes.
In a further test the test system is Prevotella bivia. Put plainly: Agar dilution MIC, anaerobes. It counts as cell-based. The conditions noted are these: Prevotella bivia; single isolate, anaerobic agar dilution; read-out: MIC Prevotella bivia.
For test [5], the system named is Porphyromonas asaccharolytica. The test is described as follows: Agar dilution MIC, anaerobes. In kind it is cell-based. The conditions noted are these: Porphyromonas asaccharolytica; single isolate, anaerobic agar dilution; read-out: MIC Porphyromonas asaccharolytica.
Test [6] concerns Peptostreptococcus prevotii. The test is described as follows: Agar dilution MIC, anaerobes. It counts as cell-based. The conditions noted are these: single isolates, anaerobic agar dilution; for MIC: Anaerococcus prevotii, read-out: MIC Peptostreptococcus prevotii.
Another test deals with anaerobic bacteria. The test is described as follows: Agar dilution method for anaerobic bacteria, summary. In kind it is cell-based.
In another test the test system is Fusobacterium nucleatum. The test is described as follows: Agar dilution MIC, anaerobes. The conditions noted are these: single isolates, anaerobic agar dilution. It counts as cell-based.
Test [7] has as its system Prevotella melaninogenica. Put plainly: Agar dilution MIC, anaerobes. The conditions noted are these: Prevotella melaninogenica, single isolates, anaerobic agar dilution; read-out: MIC Prevotella melaninogenica. In kind it is cell-based.

Consider `CC(=O)NC[C@H]1CN(c2ccc(N3CCN(Cc4ccc([N+](=O)[O-])o4)CC3)c(F)c2)C(=O)O1` [Compound No. 15, (S)-N-[[3-[3-fluoro-4-[N-1-[4-{2-furyl-(5-nitro)methyl}]piperazinyl]phenyl]-2-oxo-5-oxazolidinyl]methyl]acetamide], for which the “MIC” value against MRSA 562 [1] (MRSA 562, Table 5) is 2 µg/mL (≈ 4.33 µM). Further, in the test on MRSA 562 [1] (agar incorporation, Table 1), the “MIC MRSA 562” value turned out to be 2 µg/mL (≈ 4.33 µM). Further, the “MIC S. pneum 6303” value against Strep. pne. ATCC 6303 was 1 µg/mL (≈ 2.17 µM). The “MIC S. pyogenes 19615” value with Strep. pyog. ATCC 19615 stood at 1 µg/mL (≈ 2.17 µM). Besides, the “MIC VRE 6A” value against VRE 6A (Ent. faecium 6A) worked out at 1 µg/mL (≈ 2.17 µM). In addition, the “MIC S. pneum AB 34” value with S. pneum AB 34 was 2 µg/mL (≈ 4.33 µM). The “MIC S. aureus 25923” value in the test on S. aureus ATCC 25923 was found to be 2 µg/mL (≈ 4.33 µM). Also, the “Geometric Mean of in vitro activity (MIC)” value with S. aureus came out at 1.63 µg/mL; in the test with S. pneumoniae it was 1.04 µg/mL; with G +ve bacteria (Gram + ve), 1.08 µg/mL; in the test on E. faecalis it was 1.6 µg/mL. Also, the MIC50 with S. aureus (Number 8) was determined as 2 µg/mL (≈ 4.33 µM); with S. pneumoniae (Number 19) it was 2 µg/mL (≈ 4.33 µM); in the test on G +ve bacteria (G +ve, Number 49), 1 µg/mL (≈ 2.17 µM); in the test on E. faecalis (Number 7), 2 µg/mL (≈ 4.33 µM). Further, the MIC90 against S. aureus (Number 8) was 2 µg/mL (≈ 4.33 µM); in the test on S. pneumoniae (Number 19), 4 µg/mL (≈ 8.67 µM); against G +ve bacteria (G +ve, Number 49) it was 2 µg/mL (≈ 4.33 µM); against E. faecalis (Number 7) it was 2 µg/mL (≈ 4.33 µM). In addition, in the test on MRSA 15187, the “MIC MRSA 15187” value was determined as 2 µg/mL (≈ 4.33 µM). Besides, in the test on MRSA 33, the “MIC MRSA 33” value was 2 µg/mL (≈ 4.33 µM). Besides, the “MIC E. faecalis 29212” value in the test with Ent. faecalis ATCC 29212 is 2 µg/mL (≈ 4.33 µM). Moreover, in the test with MRSA 562 [2], the “ED50 (mg/kg body weight) PO” value stood at 4.33 mg/kg body weight.
For the compound `COc1c(N2CCNC(C)C2)c(F)cc2c(=O)c(C(=O)O)cn(C3CC3)c12` (stereo not shown) [Gatifloxacin], the MIC was found to be 1 µg/mL (≈ 2.66 µM) with Bacteroides fragilis; 0.06 µg/mL (≈ 0.16 µM) with Porphyromonas gingivalis; 0.25 µg/mL (≈ 0.666 µM) with Fusobacterium montiferum (Fusobacterium, read-out: MIC Fusobacterium montiferum); 1 µg/mL (≈ 2.66 µM) in the test with Clostridium perfringens; 0.25 µg/mL (≈ 0.666 µM) with Eubacterium leutum (Eubacterium, read-out: MIC Eubacterium leutum); 0.25 µg/mL (≈ 0.666 µM) in the test with P. acnes. The MIC is 1 µg/mL (≈ 2.66 µM) in [3]; 0.25 µg/mL (≈ 0.666 µM) in the test on Prevotella intermedia; 1 µg/mL (≈ 2.66 µM) in the test with Clostridium difficile; 0.25 µg/mL (≈ 0.666 µM) with Clostridium camis; 1 µg/mL (≈ 2.66 µM) in [4] (Anaerococcus tetradius, read-out: MIC Peptostreptococcus tetradius); 0.5 µg/mL (≈ 1.33 µM) with Fusobacterium necrogenes. For the same compound, the MIC was 2 µg/mL (≈ 5.33 µM) in the test on Prevotella bivia; 0.25 µg/mL (≈ 0.666 µM) in test [5]; 0.5 µg/mL (≈ 1.33 µM) in test [6]; 0.25 µg/mL (≈ 0.666 µM) in the test with Fusobacterium nucleatum (Fusobacterium nucleatum, read-out: MIC Fusobacterium nucleatum). In the test with Fusobacterium montiferum, the “MIC Fusobacterium montiferum” value was 0.5 µg/mL (≈ 1.33 µM). The “MIC Eubacterium leutum” value in the test on Eubacterium leutum is 0.5 µg/mL (≈ 1.33 µM). Further, in the test with P. acnes, the “MIC P. acnes” value is 0.125 µg/mL (≈ 0.333 µM). Moreover, the “MIC Clostridium difficile” value in the test with Clostridium difficile turned out to be 2 µg/mL (≈ 5.33 µM). Further, the “MIC Peptostreptococcus tetradius” value in test [4] was determined as 0.5 µg/mL (≈ 1.33 µM). Moreover, the “MIC Peptostreptococcus prevotii” value in test [6] came out at 1 µg/mL (≈ 2.66 µM). In the test on anaerobic bacteria (anaerobes), the “Geometric Mean” value came out at 0.659 µg/mL. Further, in the test on anaerobic bacteria (anaerobes), the “MIC Range” value fell in the range of 0.06 to 32 µg/mL. The MIC50 with anaerobic bacteria (anaerobes, Wilkins Chalgren agar, 48 hour, read-out: MIC50) stood at 0.5 µg/mL (≈ 1.33 µM). For the same compound, the MIC90 in the test on anaerobic bacteria (anaerobes, Wilkins Chalgren agar, 48 hour, read-out: MIC90) is 2 µg/mL (≈ 5.33 µM). In the test on Fusobacterium nucleatum, the “MIC Fusobacterium nucleatum” value stood at 0.5 µg/mL (≈ 1.33 µM).
Regarding `CCC[C@@H]1C[C@@H](C(=O)N[C@@H]([C@H]2O[C@H](SC)[C@H](O)[C@@H](O)[C@H]2O)[C@H](C)Cl)N(C)C1` [Clindamycin], the MIC is ≤ 0.016 µg/mL in the test on Porphyromonas gingivalis; 1 µg/mL (≈ 2.35 µM) with Clostridium perfringens; 0.06 µg/mL (≈ 0.141 µM) with P. acnes; 8 µg/mL (≈ 18.8 µM) in test [3]; ≤ 0.016 µg/mL in test [7]; ≤ 0.016 µg/mL in the test on Prevotella intermedia. Also, the MIC with Clostridium difficile was 2 µg/mL (≈ 4.71 µM); in the test on Clostridium camis, 0.03 µg/mL (≈ 0.0706 µM); in the test on Fusobacterium necrogenes, 0.03 µg/mL (≈ 0.0706 µM); with Prevotella bivia it was > 32 µg/mL; in test [5], ≤ 0.016 µg/mL; in [6], 0.25 µg/mL (≈ 0.588 µM). Also, in the test with Clostridium perfringens (single isolates, anaerobic agar dilution), the “MIC Clostridium perfringens” value was found to be 0.5 µg/mL (≈ 1.18 µM). Besides, the “MIC Prevotella (Bacteroides) disiens” value in test [3] was 4 µg/mL (≈ 9.41 µM). Further, in the test with Clostridium difficile, the “MIC Clostridium difficile” value amounted to 4 µg/mL (≈ 9.41 µM). Moreover, in test [6], the “MIC Peptostreptococcus prevotii” value stood at 0.125 µg/mL (≈ 0.294 µM). The compound also yielded an MIC50 in the test on anaerobic bacteria (48 h) of 0.125 µg/mL (≈ 0.294 µM). This compound gave an MIC90 against anaerobic bacteria (48 h) of 8 µg/mL (≈ 18.8 µM). The “Geometric Mean” value in the test on anaerobic bacteria (anaerobes) amounted to 0.208 µg/mL. Also, in the test with anaerobic bacteria (anaerobes), the “MIC Range” value fell in the range of 0.008 to 64 µg/mL.
